Source: patent US7820833B2, “Dithio compounds” (Marquette University, priority 2005, dated 2010)

Test: FRET-based detection of thiols with coumarin-DAP-FITC
Details: 5 μM probe, Hepes pH 7.0; excitation 300 to 330 nm; no DTT
Protocol: FIG. 18. FRET-based detection of thiols: (a) R^1—S—S—R^2 probe with FRET capability (coumarin-DAP-FITC); (b) Fluorescence emission of coumarin-DAP-FITC at different excitation wavelengths; (c) Fluorescence emission of coumarin DAP-FITC after treatment with 1 mM DTT reductant (5 min) at different excitation wavelengths.
Hepes (pH 7.0) buffer was used in this study (FIG. 18) and fluorescence readings were made on a BMG Polarstar Galaxy fluorescence plate reader and/or on a Jasco FP-6500 spectrofluorometer. […] The probe (5 μM) was transferred to a 4 mL fluorescence cell and a three dimensional fluorescence spectra was recorded with excitation wavelength from 300 nm to 400 nm and emission wavelength from 400 nm to 600 nm. The coumarin chromophone has maximum excitation wavelength in the range of 310 to 325 nm and emits in the range of 400 nm to 425 nm. […] Analogues of this coumarin-DAP-FITC FRET pair can be used to tune excitation wavelengths in the range of 280 to 400 nm by placing different substitutions on the coumarin core. This includes using commercially available coumarin compounds and also coumarin compounds synthesized with functional groups like NO2, CN, NH2, COOH, CHO, alkyl, benzyl, pyridyl, naphthyl, indoles, etc at any of the synthetically feasible positions on benzyl ring of coumarin or lactone ring of coumarin. […]

fluorescence emission of intact probe: emission is only from FITC at 520 nm
Compound: Cc1cc(=O)oc2cc(SSc3ccc(C(=S)Nc4ccc(C(=O)O)c(-c5c6ccc(=O)cc-6oc6cc(O)ccc56)c4)cc3)ccc12 [coumarin-DAP-FITC, 2-(6-Hydroxy-3-oxo-3H-xanthen-9-yl)-4-[4-(4-methyl-2-oxo-2H-chromen-7-yldisulfanyl)-thiobenzoylamino]-benzoic acid]
